Values quoted from earlier work in patent US9943543B2, “Treating male infertility secondary to sperm oxidative stress” (priority 2009, dated 2018).

## CCC(=O)O[C@H](CC(=O)[O-])C[N+](C)(C)C [Propionyl-L-carnitine]
After oral administration
  time to peak concentrations: about 1 hour
After oral administration of propionyl-L-carnitine
  time of rise in L-carnitine plasma levels after administration: 2 to 6 h
